Results published in US20030022812A1, “Treating pain by targeting hyperpolarization-activated, cyclic nucleotide-gated channels” (priority 2001, published 2003).

Columns and labels:
CFA-injected rats = experiment: Tactile allodynia (von Frey) in complete Freund's adjuvant (CFA) paw model of inflammatory pain; type: in vivo, rat; settings: i.p., ZD7288 10 mg/kg, ibuprofen 30 mg/kg, morphine 3 mg/kg, gabapentin 100 mg/kg
[1] = tested on: preclinical models of neuropathic pain; settings: Chaplan 1999; cited from earlier work
[2] = tested on: rat mild thermal injury model; experiment: Spontaneous pain behaviors in rat mild thermal injury (first-degree burn) model; type: in vivo; settings: 30 and 60 min after i.p. administration
Ih = settings: applied intracellularly at 5 or 10 mM (Perkins et al. 1995); cited from earlier work
[3] = tested on: native Ih in normal rat L4 dorsal root ganglion neurons; experiment: Whole cell patch clamp of native Ih in dissociated normal rat L4 DRG neurons, lidocaine block; type: cell-based
Procedure: Lidocaine was tested for its effect on Ih expressed in dissociated L4 dorsal root ganglion neurons from uninjured rats to determine whether this well known Na channel blocker could have other mechanisms of action.
DRG were extirpated, dissociated and cultured 3-4 days on poly-D-lysine coated coverslips as described in Example 10. Ih was measured using the whole cell configuration of the patch clamp technique according to the methods described in Example 10 with the exception that the pipette solution was the solution used in Example 3. Neurons were challenged with a family of hyperpolarizing voltage pulses (−60 mV to −150 mV in increments of 10 mV) from a holding potential of −50 mV. Ih was determined at the end of 600 msec duration test pulses. Lidocaine was bath-applied at neutral pH and the percent inhibition of control Ih was determined after lidocaine achieved steady state block. Plotted is the steady state current observed at −134 mV as a percent of control after incubation of lidocaine at the indicated concentrations. […] Lidocaine block was reversible. Data were obtained from 3 cells having control Ih densities of −1.5, −2.0 and −2.2 pA/pF.

[4] = tested on: Ih in rabbit sinoatrial node; settings: rabbit sinoatrial node (Rocchetti et al. 1999); read-out: ED50 of Ih block previously reported; cited from earlier work

In the case of NCC1(CC(=O)O)CCCCC1 [gabapentin], the “suppression of CFA-induced tactile allodynia” value (CFA-injected rats) is reported as “not”.

In the case of CCCCN1CCCCC1C(=O)Nc1c(C)cccc1C (stereo not shown) [bupivacaine], the anti-hyperalgesic activity [1] is given as “does not possess any anti-hyperalgesic activity”.

In the case of CN1CC[C@]23c4c5ccc(O)c4O[C@H]2[C@@H](O)C=C[C@H]3[C@H]1C5 [morphine], the “suppression of CFA-induced tactile allodynia” value (CFA-injected rats) is reported as “suppressed” and the “suppression of spontaneous pain behaviors” value [2] is reported as “near complete suppression”.

For CC(C)Cc1ccc(C(C)C(=O)O)cc1 (stereo not shown) [ibuprofen], the “suppression of CFA-induced tactile allodynia” value (CFA-injected rats) was “suppressed” and the “suppression of CFA-induced tactile allodynia” value (CFA-injected rats; listed as Ibuprofen) was “some efficacy”.

In the case of CC[N+](CC)(CC)CC(=O)Nc1c(C)cccc1C [QX-314], the “block of Ih” value (Ih) is given as “blocks Ih”.

In the case of CCN(CC)CC(=O)Nc1c(C)cccc1C [lidocaine], the “reversibility of Ih block” value [3] is listed as “reversible”, the EC50 ([3]; bath-applied at neutral pH, current at −134 mV, 3 cells, read-out: ED50 of concentration-dependent block of Ih) is listed as 23 µM and the EC50 [4] is listed as 38.2 µM.
